The target in assay [1] is EP2 (Homo sapiens, UniProt P43116).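 Note: functional calcium flux assay in stably transfected HEK293 cells expressing EP2 coupled via a promiscuous G protein, clytin luminescence read as area under the curve, 30 min compound preincubation.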
For assay [2], the target named is T1, EP4 (Homo sapiens, UniProt P35408).
T1 construct: host or cells: stably transfected HEK293 cells co-expressing a promiscuous G protein and a clytin variant
Description: Functional calcium flux assay, EP4. The class given is cell-based. The conditions noted are these: stably transfected HEK293 cells; PGE2 10 nM; read-out: EP4 Ca2+-flux assay IC50.
Description: Each receptor subtype has an additional promiscuous G protein added in order to couple the aforementioned receptor to the calcium signaling pathway. The parental cell line used also expresses a novel variant of clytin, a calcium-activated photo-protein, to enable sensitive luminescent detection. Briefly, cells were plated at 50,000 cells-per-well in black, clear bottom 96-well plates. The plated cells were allowed to sit at room temperature for 30 min prior to transferring to a humidified, 37° C., 5% CO2 incubator for 18 to 24 h. Assay buffer (HBSS with 20 mM HEPES) and loading buffer (assay buffer plus 10 μM coelenterazine) were prepared on the day of the assay. Assays were performed by aspirating media from the assay plate and washing once with assay buffer, then replacing with loading buffer and allowing the cells to incubate for 1.5 h at room temperature. Compounds were prepared in assay buffer at a 3× final concentration in non-binding plates. Compounds were added to the cell plates and incubated for 30 min at room temperature. The prostanoid receptor ligand PGE2 was prepared at a 4× dilution ratio for a final concentration of 10 nM. Plates were run on a Flexstation™ using a 100 ms integration luminescence protocol for a total of 60 sec with ligand addition at 15 sec. Data were obtained from relative light units as measured by area under the curve.

Consider 27 molecules from US12215093B2, “Bicyclic carboxamides and methods of use thereof” (Tempest Therapeutics, Inc., priority 2018, dated 2025).

One may read the IC50 as the midpoint of a concentration-inhibition curve.

T1 sequence (P35408 whole entry): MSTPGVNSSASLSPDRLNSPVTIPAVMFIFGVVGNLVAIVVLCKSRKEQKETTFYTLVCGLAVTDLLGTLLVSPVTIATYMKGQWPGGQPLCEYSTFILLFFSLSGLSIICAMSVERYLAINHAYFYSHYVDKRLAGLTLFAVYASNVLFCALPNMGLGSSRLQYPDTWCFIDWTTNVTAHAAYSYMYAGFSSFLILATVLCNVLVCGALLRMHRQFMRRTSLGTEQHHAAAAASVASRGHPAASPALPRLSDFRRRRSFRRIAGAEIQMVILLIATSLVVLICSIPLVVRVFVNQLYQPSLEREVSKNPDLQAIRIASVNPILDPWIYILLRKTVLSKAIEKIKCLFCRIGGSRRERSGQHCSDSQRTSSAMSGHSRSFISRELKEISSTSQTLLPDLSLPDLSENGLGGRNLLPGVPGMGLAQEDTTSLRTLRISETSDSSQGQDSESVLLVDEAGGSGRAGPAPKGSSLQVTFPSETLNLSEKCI
EP2, sequence (P43116 whole entry): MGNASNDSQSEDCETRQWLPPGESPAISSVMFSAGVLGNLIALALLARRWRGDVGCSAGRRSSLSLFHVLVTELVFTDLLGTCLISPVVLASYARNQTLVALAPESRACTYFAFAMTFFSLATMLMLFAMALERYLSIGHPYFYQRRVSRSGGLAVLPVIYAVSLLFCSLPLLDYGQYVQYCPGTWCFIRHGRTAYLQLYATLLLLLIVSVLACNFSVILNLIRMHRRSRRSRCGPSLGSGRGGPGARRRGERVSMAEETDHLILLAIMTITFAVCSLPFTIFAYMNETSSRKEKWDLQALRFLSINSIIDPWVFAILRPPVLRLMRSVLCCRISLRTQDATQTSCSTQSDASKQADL

With `CCNC(=O)c1cc(-c2ccc(Cn3ccc4c(F)ccc(C(=O)NC5CC6(C5)CC(C(=O)O)C6)c43)cc2)ccn1` (stereo not drawn) [Example 61, (Sa)-6-(1-(4-(2-(ethylcarbamoyl)pyridin-4-yl)benzyl)-4-fluoro-1H-indole-7-carboxamido)spiro[3.3]heptane-2-carboxylic acid], the IC50 is below 25 nM in assay [1] and below 1 nM in assay [2].

Take `CNC(=O)c1cccc(-c2ccc(Cn3ccc4c(F)ccc(C(=O)NC5CC6(C5)CC(C(=O)O)C6)c43)cc2)n1` (stereo not drawn) [Example 62, (Sa)-6-(4-fluoro-1-(4-(6-(methylcarbamoyl)pyridin-2-yl)benzyl)-1H-indole-7-carboxamido)spiro[3.3]heptane-2-carboxylic acid]: the IC50 in assay [1] is 54 nM; in assay [2] it was below 1 nM.

Turning to `CNC(=O)c1ccc(-c2ccc(Cn3ccc4c(F)ccc(C(=O)NC5CC6(C5)CC(C(=O)O)C6)c43)cc2)cn1` (stereo not drawn) [Example 63, (Sa)-6-(4-fluoro-1-(4-(6-(methylcarbamoyl)pyridin-3-yl)benzyl)-1H-indole-7-carboxamido)spiro[3.3]heptane-2-carboxylic acid], the IC50 in assay [1] is 90 nM; in assay [2], below 1 nM.

Take `O=C(NC1CC2(C1)CC(C(=O)O)C2)c1ccc(F)c2ccn(Cc3ccc(-c4ccnc(C(F)F)c4)cc3)c12` (stereo not drawn) [Example 64, (Sa)-6-(1-(4-(2-(difluoromethyl)pyridin-4-yl)benzyl)-4-fluoro-1H-indole-7-carboxamido)spiro[3.3]heptane-2-carboxylic acid]: the results for the IC50 in assay [1] and in assay [2] were 48 nM and below 1 nM, respectively.

`O=C(NC1CC2(C1)CC(C(=O)O)C2)c1ccc(Cl)c2ccn(Cc3ccc(-c4ccccc4)cc3)c12` (stereo not drawn) [Example 68, (Sa)-6-(1-([1,1′-biphenyl]-4-ylmethyl)-4-chloro-1H-indole-7-carboxamido)spiro[3.3]heptane-2-carboxylic acid]: the IC50 is below 25 nM in assay [1] and below 1 nM in assay [2].

For `COc1cc(-c2ccc(Cn3ccc4c(Cl)ccc(C(=O)NC5CC6(C5)CC(C(=O)O)C6)c43)cc2)ccn1` (stereo not drawn) [Example 69], the results for the IC50 in assay [1] and in assay [2] were 33 nM and 2.2 nM, respectively.

With `CCOc1cc(-c2ccc(Cn3ccc4c(Cl)ccc(C(=O)NC5CC6(C5)CC(C(=O)O)C6)c43)cc2)ccn1` (stereo not drawn) [Example 70, (Sa)-6-(4-chloro-1-(4-(2-ethoxypyridin-4-yl)benzyl)-1H-indole-7-carboxamido)spiro[3.3]heptane-2-carboxylic acid], the IC50 was below 25 nM in assay [1] and below 1 nM in assay [2].

Regarding `O=C(NC1CC2(C1)CC(C(=O)O)C2)c1ccc(Cl)c2cnn(Cc3ccc(-n4cccn4)cc3)c12` (stereo not drawn) [Example 73, (Sa)-6-(1-(4-(1H-pyrazol-1-yl)benzyl)-4-chloro-1H-indazole-7-carboxamido)spiro[3.3]heptane-2-carboxylic acid], the IC50 in assay [1] was determined as 71 nM; in assay [2], 1.3 nM.

Consider `CCOc1cc(-c2ccc(Cn3ncc4c(Cl)ccc(C(=O)NC5CC6(C5)CC(C(=O)O)C6)c43)cc2)ccn1` (stereo not drawn) [Example 79, (Sa)-6-(4-chloro-1-(4-(2-ethoxypyridin-4-yl)benzyl)-1H-indazole-7-carboxamido)spiro[3.3]heptane-2-carboxylic acid], for which the IC50 in assay [1] is below 25 nM; in assay [2], below 1 nM.

As for `N#Cc1cccc(-c2ccc(Cn3ncc4c(Cl)ccc(C(=O)NC5CC6(C5)CC(C(=O)O)C6)c43)cc2)c1` (stereo not drawn) [Example 80, (Sa)-6-(4-chloro-1-((3′-cyano-[1,1′-biphenyl]-4-yl)methyl)-1H-indazole-7-carboxamido)spiro[3.3]heptane-2-carboxylic acid], the IC50 came out at 55 nM in assay [1] and 1.1 nM in assay [2].

As for `O=C(NC1CC2(C1)CC(C(=O)O)C2)c1ccc(Cl)c2cnn(Cc3ccc(C4=CCCCC4)c(F)c3)c12` (stereo not drawn) [Example 81, (Sa)-6-(4-chloro-1-((2-fluoro-2′3′4′5′-tetrahydro-[1,1’-biphenyl]-4-yl)methyl)-1H-indazole-7-carboxamido)spiro[3.3]heptane-2-carboxylic acid], the IC50 in assay [1] was below 25 nM; in assay [2], below 1 nM.

With `O=C(NC1CC2(C1)CC(C(=O)O)C2)c1ccc(Cl)c2cnn(Cc3ccc(C4=CCCC4)c(F)c3)c12` (stereo not drawn) [Example 82, (Sa)-6-(4-chloro-1-(4-(cyclopent-1-en-1-yl)-3-fluorobenzyl)-1H-indazole-7-carboxamido)spiro[3.3]heptane-2-carboxylic acid], the IC50 is below 25 nM in assay [1] and below 1 nM in assay [2].

On to `CCOc1nccc(-c2ccc(Cn3ncc4c(Cl)ccc(C(=O)NC5CC6(C5)CC(C(=O)O)C6)c43)cc2)n1` (stereo not drawn) [Example 84, (Sa)-6-(4-chloro-1-(4-(2-ethoxypyrimidin-6-yl)benzyl)-1H-indazole-7-carboxamido)spiro[3.3]heptane-2-carboxylic acid], for which the IC50 in assay [1] was below 25 nM; in assay [2], below 1 nM.

For the molecule `CNC(=O)c1cccc(-c2ccc(Cn3ncc4c(Cl)ccc(C(=O)NC5CC6(C5)CC(C(=O)O)C6)c43)cc2)n1` (stereo not drawn) [Example 85, (Sa)-6-(4-chloro-1-(4-(6-(methylcarbamoyl)pyridin-2-yl)benzyl)-1H-indazole-7-carboxamido)spiro[3.3]heptane-2-carboxylic acid], the 50% inhibitory concentration (IC50) is 30 nM in assay [1] and below 1 nM in assay [2].

`O=C(NC1CC2(C1)CC(C(=O)O)C2)c1ccc(Cl)c2cnn(Cc3ccc(-c4cccc(OC(F)(F)F)n4)cc3)c12` (stereo not drawn) [Example 86]: the IC50 in assay [1] stood at 36 nM; in assay [2] it was 1.8 nM.

Regarding `CCOc1cc(-c2ccc(Cn3ccc4c(OC)ncc(C(=O)NC5CC6(C5)CC(C(=O)O)C6)c43)cc2)ccn1` (stereo not drawn) [Example 89, (Sa)-6-(1-(4-(2-ethoxypyridin-4-yl)benzyl)-4-methoxy-1H-pyrrolo[3,2-c]pyridine-7-carboxamido)spiro[3.3]heptane-2-carboxylic acid], the IC50 in assay [1] was determined as 97 nM; in assay [2], 1.3 nM.

`CCOc1ncc(C(=O)NC2CC3(C2)CC(C(=O)O)C3)c2c1ccn2Cc1ccc(-c2ccccc2)cc1` (stereo not drawn) [Example 90, (Sa)-6-(1-([1,1′-biphenyl]-4-ylmethyl)-4-ethoxy-1H-pyrrolo[3,2-c]pyridine-7-carboxamido)spiro[3.3]heptane-2-carboxylic acid]: the IC50 in assay [1] is 57 nM; in assay [2], below 1 nM.

Consider `CCOc1ccc(-c2ccc(Cn3ccc4c(OC)ncc(C(=O)NC5CC6(C5)CC(C(=O)O)C6)c43)cc2)cn1` (stereo not drawn) [Example 91, (Sa)-6-(1-(4-(6-ethoxypyridin-3-yl)benzyl)-4-methoxy-1H-pyrrolo[3,2-c]pyridine-7-carboxamido)spiro[3.3]heptane-2-carboxylic acid], for which the concentration for half-maximal inhibition (IC50) is 59 nM in assay [1] and below 1 nM in assay [2].

As for `O=C(NC1CC2(C1)CC(C(=O)O)C2)c1ccc(Cl)c2cnn(Cc3ccc(OC(F)(F)F)cc3)c12` (stereo not drawn) [Example 95, (Sa)-6-(4-chloro-1-(4-(trifluoromethoxy)benzyl)-1H-indazole-7-carboxamido)spiro[3.3]heptane-2-carboxylic acid], the IC50 in assay [1] is 83 nM; in assay [2], 9 nM.

Turning to `O=C(NC1CC2(C1)CC(C(=O)O)C2)c1ccc(Cl)c2cnn(Cc3ccc4ccccc4c3)c12` (stereo not drawn) [Example 96, (Sa)-6-(4-chloro-1-(naphthalen-2-ylmethyl)-1H-indazole-7-carboxamido)spiro[3.3]heptane-2-carboxylic acid], the IC50 is below 25 nM in assay [1] and below 1 nM in assay [2].

Consider `COc1ccc(-c2ccc(Cn3ccc4c(F)ccc(C(=O)NC5CC6(CC(CC(=O)O)C6)C5)c43)cc2)cn1` (stereo not drawn) [Example 138, (Ra)-2-(6-(4-Fluoro-1-(4-(6-methoxypyridin-3-yl)benzyl)-1H-indole-7-carboxamido)spiro[3.3]heptan-2-yl)acetic acid], for which the figures for the IC50 in assay [1] and in assay [2] were 25 nM and below 1 nM, respectively.

Turning to `COc1cc(-c2ccc(Cn3ccc4c(F)ccc(C(=O)NC5CC6(CC(CC(=O)O)C6)C5)c43)cc2)ccn1` (stereo not drawn) [Example 139, (Ra)-2-(6-(4-Fluoro-1-(4-(2-methoxypyridin-4-yl)benzyl)-1H-indole-7-carboxamido)spiro[3.3]heptan-2-yl)acetic acid], the IC50 in assay [1] was below 25 nM; in assay [2], below 1 nM.

`O=C(O)CC1CC2(C1)CC(NC(=O)c1ccc(Cl)c3cnn(Cc4ccc(-c5ccccc5F)cc4)c13)C2` (stereo not drawn) [Example 143, (Ra)-2-(6-(4-Chloro-1-((2′-fluoro-[1,1′-biphenyl]-4-yl)methyl)-1H-indazole-7-carboxamido)spiro[3.3]heptan-2-yl)acetic acid]: the IC50 in assay [1] is 35 nM; in assay [2], below 1 nM.

Consider `N#Cc1cccc(-c2ccc(Cn3ncc4c(Cl)ccc(C(=O)NC5CC6(CC(CC(=O)O)C6)C5)c43)cc2)c1` (stereo not drawn) [Example 144, (Ra)-2-(6-(4-Chloro-1-((3′-cyano-[1,1-biphenyl]-4-yl)methyl)-1H-indazole-7-carboxamido)spiro[3.3]heptan-2-yl)acetic acid], for which the results for the IC50 in assay [1] and in assay [2] were below 25 nM and below 1 nM, respectively.

As to `COc1ccc2cc(-c3ccc(Cn4ncc5c(Cl)ccc(C(=O)NC6CC7(CC(CC(=O)O)C7)C6)c54)cc3)ccc2n1` (stereo not drawn) [Example 146, (Ra)-2-(6-(4-Chloro-1-(4-(2-methoxyquinolin-6-yl)benzyl)-1H-indazole-7-carboxamido)spiro[3.3]heptan-2-yl)acetic acid], the values for the IC50 in assay [1] and in assay [2] were 82 nM and below 1 nM, respectively.

Consider `COc1ccc2cc(-c3ccc(Cn4ncc5cc(Cl)cc(C(=O)NC6CC7(CC(CC(=O)O)C7)C6)c54)cc3)ccc2n1` (stereo not drawn) [Example 147, (Ra)-2-(6-(5-Chloro-1-(4-(2-methoxyquinolin-6-yl)benzyl)-1H-indazole-7-carboxamido)spiro[3.3]heptan-2-yl)acetic acid], for which the IC50 is below 25 nM in assay [1] and below 1 nM in assay [2].

With `COc1cccc(-c2ccc(Cn3ncc4c(Cl)ccc(C(=O)NC5CC6(CC(CC(=O)O)C6)C5)c43)cc2)n1` [Example 149, (R)-2-(6-(4-Chloro-1-(4-(6-methoxypyridin-2-yl)benzyl)-1H-indazole-7-carboxamido)spiro[3.3]heptan-2-yl)acetic acid], the concentration for half-maximal inhibition (IC50) in assay [1] was 38 nM; in assay [2] it was below 1 nM.
